Data from publication PMC10876669, “Substrate promiscuity of inositol 1,4,5-trisphosphate kinase driven by structurally-modified ligands and active site plasticity” (Nature Communications, 2024).
Where “and” joins values, the source holds several entries; their conditions need not be identical. Identical values can stand only once.

Target: T1, IP3K-KD (human IP3K-KD A isoform, residues 187–461) (Homo sapiens, UniProt P23677)
T1 construct: human IP3K-KD A isoform (residues 187–461); GST (cleaved yes); made in house; host or cells: Escherichia coli BL21 star (DE3)
T1 sequence (P23677 187-461): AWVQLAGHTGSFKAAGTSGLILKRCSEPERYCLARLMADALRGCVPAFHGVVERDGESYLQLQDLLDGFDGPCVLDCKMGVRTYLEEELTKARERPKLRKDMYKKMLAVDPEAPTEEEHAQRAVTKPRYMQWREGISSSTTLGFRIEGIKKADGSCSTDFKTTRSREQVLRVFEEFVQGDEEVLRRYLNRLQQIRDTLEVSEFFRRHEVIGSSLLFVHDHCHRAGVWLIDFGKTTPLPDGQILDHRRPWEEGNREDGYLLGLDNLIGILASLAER
Test: Fluorescence thermal shift analysis (Tycho NT.6, inflection temperature Ti)
Format: binding
Conditions: for Ti, transition 1 (mean inflection temperature) / Ti, transition 2 (mean inflection temperature): 10 μM IP3K-KD, 100 μM chiral or 200 μM racemic ligand, AMP-PNP or ADP, 100 μM MgCl2; for Ti, transition 1 (mean inflection temperature) / Ti, transition 2 (mean inflection temperature) / ΔTi, transition 1 / ΔTi, transition 2: mean ± SD, n=3; for ΔTi, transition 1: Ti minus Ti of apo IP3K-KD (44.4); for ΔTi, transition 2: Ti minus Ti of apo IP3K-KD (53.8); for Transition 1 Ti, individual measurement / Transition 2 Ti, individual measurement: source data of Fig. 6b/6c, single replicates; for Transition 1 Dti (Ti-Ti Apo) / Transition 1 Ti Mean / Transition 2 DTi (Ti-Ti Apo) / Transition 2 Ti Mean: source data of Fig. 6c, N 3
Procedure: A construct encoding human IP3K-KD A isoform (residues 187–461) into pOPTG vector was used[16]. The protein was expressed in Escherichia coli BL21 star (DE3) strain. Cells were grown at 37 °C to OD600 = 1.0 then induced with 0.4 mM IPTG for 18 h at 16 °C. Protein purification was performed by adapting the reported protocol. Cells were resuspended in buffer A (10 mM Tris pH 7.5 [4 °C], 200 mM NaCl and 2 mM DTT) and disrupted by sonication. Clarified cell lysate was diluted 1/4 in buffer B (10 mM Tris pH 7.5 [4 °C] and 2 mM DTT) and loaded into a 5 mL HiTrap heparin column (GE Healthcare) washed by buffer C (20 mM Tris pH 7.5, 50 mM NaCl and 2 mM DTT), and eluted with a 0.05 M–1 M salt gradient. The eluted sample was subsequently loaded on to a 5 mL glutathione–Sepharose HP column (GE Healthcare), washed with buffer A and eluted with reduced glutathione 10 mM (Sigma-Aldrich) in buffer A. The GST tag was cleaved with home-made TEV (tobacco etch virus) protease overnight at 4 °C, (1:40 TEV/protein mass ratio). After glutathione removal with a PD10 column, the cleaved protein was further purified using a 5 mL glutathione–Sepharose HP column (GE Healthcare) followed by gel filtration on a 16/600 Superdex200 (GE Healthcare) column equilibrated in buffer D (20 mM Tris pH 7.5 [4 °C], 0.05 M (NH4)2SO4 and 2 mM DTT). Protein samples were analyzed by SDS/PAGE, concentrated around 18 mg/mL and stored at −80 °C until use.
Thermal protein denaturation was documented by recording intrinsic protein fluorescence at 330 and 350 nm wavelengths. The fluorescence recorded in each thermal run is plotted as 350/330 nm ratio and used to calculate the Inflection Temperature (Ti). Ti is the temperature at which a protein undergoes a transition in its folding state. This calculation is performed automatically by the Tycho NT.6 software. The protocol optimized for this procedure, involves a heating time of 2 min, a sample volume of 10 μl placed in a very thin capillary, and a temperature ramp from 35 °C (308 K) to 95 °C (368 K). For the experiment, IP3K-KD was diluted with buffer D to achieve a concentration of 0.31 mg/mL (10 μM). It was then mixed with 100 μM of chiral ligands or 200 μM of racemic ligands (all synthesized as stated in this work except InsP3 and InsP4 that were commercial from Avanti Polar Lipids), AMP-PNP (substrate analogues) or ADP (product-like ligands) and 100 μM MgCl2. Microsoft Excel was used to calculate and plot ΔTi values and standard deviations.

## O=P(O)(O)O[C@@H]1[C@@H](O)[C@@H](O)[C@@H](OP(=O)(O)O)[C@H](OP(=O)(O)O)[C@H]1O [2-s, D-myo-inositol 1,4,6-trisphosphate]
  Ti, transition 1 (mean inflection temperature): 53.1 ± 0.3 ºC
  Ti, transition 2 (mean inflection temperature): 58.4 ± 0.2 ºC
  ΔTi, transition 1: 8.7 ± 0.4 ºC
  ΔTi, transition 2: 4.6 ± 0.2 ºC
  Transition 1 Ti, individual measurement: 53.1 and 52.8 and 53.3
  Transition 2 Ti, individual measurement: 58.2 and 58.5 and 58.4
  Transition 1 Dti (Ti-Ti Apo): 8.7
  Transition 1 Ti Mean: 53.1
  Transition 2 DTi (Ti-Ti Apo): 4.6
  Transition 2 Ti Mean: 58.4

## O=P(O)(O)O[C@@H]1[C@@H](O)[C@H](OP(=O)(O)O)C[C@@H](O)[C@H]1OP(=O)(O)O [3-s, D-3-deoxy-myo-inositol 1,4,6-trisphosphate]
  Ti, transition 1 (mean inflection temperature): 52.0 ± 0.2 ºC
  Ti, transition 2 (mean inflection temperature): 57.4 ± 0.1 ºC
  ΔTi, transition 1: 7.6 ± 0.3 ºC
  ΔTi, transition 2: 3.6 ± 0.2 ºC
  Transition 1 Ti, individual measurement: 52.1 and 51.8 and 52.0
  Transition 2 Ti, individual measurement: 57.4 (2×) and 57.5
  Transition 1 Dti (Ti-Ti Apo): 7.6
  Transition 1 Ti Mean: 52.0
  Transition 2 DTi (Ti-Ti Apo): 3.6
  Transition 2 Ti Mean: 57.4

## O=P(O)(O)O[C@@H]1[C@H](O)[C@@H](O)[C@@H](OP(=O)(O)O)[C@H](OP(=O)(O)O)[C@H]1O [4-s, L-chiro-inositol 2,3,5-trisphosphate]
  Ti, transition 1 (mean inflection temperature): 51.7 ± 0.1 ºC
  Ti, transition 2 (mean inflection temperature): 57.3 ± 0.1 ºC
  ΔTi, transition 1: 7.3 ± 0.3 ºC
  ΔTi, transition 2: 3.5 ± 0.2 ºC
  Transition 1 Ti, individual measurement: 51.8 and 51.7 (2×)
  Transition 2 Ti, individual measurement: 57.2 and 57.3 (2×)
  Transition 1 Dti (Ti-Ti Apo): 7.3
  Transition 1 Ti Mean: 51.7
  Transition 2 DTi (Ti-Ti Apo): 3.5
  Transition 2 Ti Mean: 57.3

## CO[C@@H]1O[C@H](CO)[C@@H](O[C@H]2O[C@H](CO)[C@@H](OP(=O)(O)O)[C@H](OP(=O)(O)O)[C@H]2O)[C@H]1OP(=O)(O)O [compound 8, ribophostin]
  Ti, transition 1 (mean inflection temperature): 44.2 ± 0.2 ºC
  Ti, transition 2 (mean inflection temperature): 54.1 ± 0.1 ºC
  ΔTi, transition 1: -0.2 ± 0.3 ºC
  ΔTi, transition 2: 0.3 ± 0.2 ºC
  Transition 1 Ti, individual measurement: 44.2 and 44.1 and 44.4
  Transition 2 Ti, individual measurement: 54.1 (2×) and 54.2
  Transition 1 Dti (Ti-Ti Apo): -0.167
  Transition 1 Ti Mean: 44.2
  Transition 2 DTi (Ti-Ti Apo): 0.333
  Transition 2 Ti Mean: 54.1
Fig. 6b,c
  Binding to IP3K (in words): do not, or barely, bind IP3K
Thermal shift, Fig. 6c
  Stabilization of IP3K-KD by ligand (in words): failure to obtain crystal complexes or observe protein stabilization
